Results published in publication PMC10551889 (Bioorganic & medicinal chemistry, 2022).
pKd: −log10 of the molar value. Entries after “also recorded” stand apart in the source; their conditions may differ.

Assays:
[1] = test system: M. bovis BCG Pasteur ATCC 35734; assay type: cell-based, Mycobacterium bovis BCG
[2] = test system: M. bovis BCG mutant POA2 (PanD Leu132Arg); assay type: cell-based, Mycobacterium bovis BCG
Mtb PanD = Mtb PanD (Mycobacterium tuberculosis, UniProt P9WIL3); experiment: biochemical; assay type: binding
Sequence of Mtb PanD (P9WIL3 25-139): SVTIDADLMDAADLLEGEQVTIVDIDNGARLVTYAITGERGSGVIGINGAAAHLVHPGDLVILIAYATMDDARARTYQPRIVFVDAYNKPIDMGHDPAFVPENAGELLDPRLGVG
Sequence of Mtb PanD (P9WIL3 1-24): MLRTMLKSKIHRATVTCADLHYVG

SMILES	antimycobacterial activity (in words) [1]	also measured
O=C([O-])c1cncc(-c2ccccc2)n1.[Na+] [compound 40, Sodium 6-phenylpyrazine-2-carboxylate]		fold less potent than POA [1]: ~2 fold
Nc1cncc(C(=O)O)n1 [compound 25, 6-amino-POA]	loss of activity	
NS(=O)(=O)c1cnccn1 [compound 14]	inactive or weakly active	
Cc1ccccc1-c1nccnc1C(=O)[O-].[Na+] [compound 36, Sodium 3-(o-tolyl)pyrazine-2-carboxylate]	completed obliterated activity	
O=C([O-])c1nccnc1N1CCCCC1.[Na+] [compound 63, Sodium 3-(piperidin-1-yl)pyrazine-2-carboxylate]	abolished activity	
CC(C)Nc1nccnc1C(=O)[O-].[Na+] [compound 55, Sodium 3-(2-propylamino)pyrazine-2-carboxylate]		shift in growth inhibition potency against PanD mutant vs wildtype (in words) [2]: moderate shift
O=C([O-])c1nccnc1Nc1ccccc1.[Na+] [compound 59, Sodium 3-(anilino)pyrazine-2-carboxylate]		shift in growth inhibition potency against PanD mutant vs wildtype (in words) [2]: moderate shift
Nc1nccnc1C(=O)O [compound 23]		shift in growth inhibition potency against PanD mutant vs wildtype (in words) [2]: minimal shift; pKd (Mtb PanD): 4.33 to 4.43
CCN(CC)c1nccnc1C(=O)[O-].[Na+] [compound 58, Sodium 3-(diethylamino)pyrazine-2-carboxylate]	loss of activity	PanD binding (in words) (Mtb PanD): no binding; also recorded: did not bind at all; also recorded: did not bind to PanD
O=C([O-])c1nccnc1N1CCOCC1.[Na+] [compound 64, Sodium 3-(morpholino)pyrazine-2-carboxylate]	abolished activity	
O=C([O-])c1cnc(-c2ccccc2)cn1.[Na+] [compound 39, Sodium 5-(phenyl)pyrazine-2-carboxylate]	eliminated activity	
NC(=S)c1cnccn1 [compound 13]	inactive or weakly active	
CC(=O)c1cnccn1 [compound 16]	eliminated activity	
CC(C)Nc1cnc(C(=O)[O-])cn1.[Na+] [compound 71, Sodium 5-(2-propylamino)pyrazine-2-carboxylate]	Loss of potency	
O=C([O-])c1cncc(NC(=O)C2CCCCC2)n1.[Na+] [compound 80, Sodium 6-(cyclohexanecarboxamido)pyrazine-2-carboxylate]	obliterated activity	
O=C([O-])c1nccnc1N1CCC2(CC1)CC2.[Na+] [compound 66, Sodium 3-(6-azaspiro[2,5]octan-6-yl)pyrazine-2-carboxylate]	abolished activity	
O=C([O-])c1nccnc1N1CCSCC1.[Na+] [compound 65, Sodium 3-(thiomorpholino)pyrazine-2-carboxylate]	abolished activity	
CC(=O)NS(=O)(=O)c1cnccn1 [compound 15, N-(Pyrazin-2-ylsulfonyl)acetamide]	inactive or weakly active	
Nc1cnc(C(=O)O)cn1 [compound 24]		shift in growth inhibition potency against PanD mutant vs wildtype (in words) [2]: moderate shift; pKd (Mtb PanD): 4.33 to 4.43
CCNc1cnc(C(=O)[O-])cn1.[Na+] [compound 42, Sodium 5-(ethylamino)pyrazine-2-carboxylate]	Loss of potency	
O=C([O-])c1nccnc1N1CCCC1.[Na+] [compound 62, Sodium 3-(pyrrolidine-1-yl)pyrazine-2-carboxylate]	abolished activity	
O=C([O-])c1cnc(NC2CCC2)cn1.[Na+] [compound 48, Sodium 5-(cyclobutylamino)pyrazine-2-carboxylate]	Loss of potency	
CCN(CC)c1cnc(C(=O)[O-])cn1.[Na+] [compound 73, Sodium 5-(diethylamino)pyrazine-2-carboxylate]	equipotent to the parent POA	
c1cnc(-c2nnn[nH]2)cn1 [compound 12, 2-(1H-Tetrazol-5-yl)pyrazine]	inactive or weakly active	
CCCCNc1cnc(C(=O)[O-])cn1.[Na+] [compound 72, Sodium 5-(n-butylamino)pyrazine-2-carboxylate]		MIC50 (MIC, concentration that inhibits fifty percent of growth) [1]: 400 µM
O=C([O-])c1cnc(NC2CCCC2)cn1.[Na+] [compound 76, Sodium 5-(cyclopentylamino)pyrazine-2-carboxylate]	Loss of potency	
CCCNc1cnc(C(=O)[O-])cn1.[Na+] [compound 70, Sodium 5-(n-propylamino)pyrazine-2-carboxylate]	Loss of potency	
CC(C)(C)Nc1nccnc1C(=O)[O-].[Na+] [compound 56, Sodium 3-(tert-butylamino)pyrazine-2-carboxylate]		cytotoxicity at higher concentrations (Vero cells): ~ 50%
CCCNc1nccnc1C(=O)[O-].[Na+] [compound 54, Sodium 3-(propylamino)pyrazine-2-carboxylate]		shift in growth inhibition potency against PanD mutant vs wildtype (in words) [2]: moderate shift
